What all share (experiment): Growth inhibitory activity of compounds on BaF3 cell lines stably transfected with kinase (MTS, 48 h)
What all share (type): cell-based

For experiment [1], the target named is T1, various mutants of kinase EGFR (BaF3 cell lines stably transfected with kinase) (Homo sapiens, UniProt P00533, L858R/T790M).
T1 construct: expressed in transfected cells; host or cells: BaF3
The following applies: BaF3 cells stably transfected with EGFR L858R/T790M, read-out: IC50, growth inhibition, L858R/T790M. Put shortly: (§1)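 BaF3 cells stably transfected with EGFR mutants were exposed for 48 h at 37°C to 8 compound concentrations (top 10 µM, 1/3 dilutions, 0.1% DMSO). Growth was read by MTS at 490 nm after 1-4 h, in duplicate; IC50 was derived from inhibition rates versus DMSO control.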

The target in experiment [2] is T2, various mutants of kinase EGFR (BaF3 cell lines stably transfected with kinase) (Homo sapiens, UniProt P00533).
T2 construct: other: BaF3 cells stably transfected with EGFR Δ19Del; MTS, 48 h; other: BaF3 cell line stably transfected with EGFR Δ19Del
The following applies: BaF3 cells stably transfected with EGFR Δ19Del, read-out: IC50, growth inhibition, Δ19Del. In outline: as §1

For experiment [3], the target named is T3, various mutants of kinase EGFR (BaF3 cell lines stably transfected with kinase) (Homo sapiens, UniProt P00533, L858R).
T3 construct: expressed in transfected cells; host or cells: BaF3
The following applies: BaF3 cells stably transfected with EGFR L858R, read-out: IC50, growth inhibition, L858R. In outline:
as §1

The target in experiment [4] is T4, various mutants of kinase EGFR (BaF3 cell lines stably transfected with kinase) (Homo sapiens, UniProt P00533, T790M, form not given).
T4 construct: other: BaF3 cells stably transfected with EGFR Δ19Del/T790M; MTS, 48 h; other: BaF3 cell line stably transfected with EGFR Δ19Del/T790M; MTS, 48
The following applies: BaF3 cells stably transfected with EGFR Δ19Del/T790M, read-out: IC50, growth inhibition, Δ19Del/T790M. Put shortly: as §1

In experiment [5] the target is T5, various mutants of kinase EGFR (BaF3 cell lines stably transfected with kinase) (Homo sapiens, UniProt P00533, T790M/C797S, form not given).
T5 construct: other: BaF3 cells stably transfected with EGFR Δ19Del/T790M/C797S; MTS, 48; other: BaF3 cell line stably transfected with EGFR Δ19Del/T790M/C7
The following applies: BaF3 cells stably transfected with EGFR Δ19Del/T790M/C797S, read-out: IC50, growth inhibition, Δ19Del/T790M/C797S. In outline: as §1

The target of experiment [6] is T6, various mutants of kinase EGFR (BaF3 cell lines stably transfected with kinase) (Homo sapiens, UniProt P00533, C797S/L858R/T790M).
T6 construct: expressed in transfected cells; host or cells: BaF3
The following applies: BaF3 cells stably transfected with EGFR L858R/T790M/C797S, read-out: IC50, growth inhibition, L858R/T790M/C797S. Put shortly: as §1

T1 sequence (P00533 25-1210 T790M/L858R): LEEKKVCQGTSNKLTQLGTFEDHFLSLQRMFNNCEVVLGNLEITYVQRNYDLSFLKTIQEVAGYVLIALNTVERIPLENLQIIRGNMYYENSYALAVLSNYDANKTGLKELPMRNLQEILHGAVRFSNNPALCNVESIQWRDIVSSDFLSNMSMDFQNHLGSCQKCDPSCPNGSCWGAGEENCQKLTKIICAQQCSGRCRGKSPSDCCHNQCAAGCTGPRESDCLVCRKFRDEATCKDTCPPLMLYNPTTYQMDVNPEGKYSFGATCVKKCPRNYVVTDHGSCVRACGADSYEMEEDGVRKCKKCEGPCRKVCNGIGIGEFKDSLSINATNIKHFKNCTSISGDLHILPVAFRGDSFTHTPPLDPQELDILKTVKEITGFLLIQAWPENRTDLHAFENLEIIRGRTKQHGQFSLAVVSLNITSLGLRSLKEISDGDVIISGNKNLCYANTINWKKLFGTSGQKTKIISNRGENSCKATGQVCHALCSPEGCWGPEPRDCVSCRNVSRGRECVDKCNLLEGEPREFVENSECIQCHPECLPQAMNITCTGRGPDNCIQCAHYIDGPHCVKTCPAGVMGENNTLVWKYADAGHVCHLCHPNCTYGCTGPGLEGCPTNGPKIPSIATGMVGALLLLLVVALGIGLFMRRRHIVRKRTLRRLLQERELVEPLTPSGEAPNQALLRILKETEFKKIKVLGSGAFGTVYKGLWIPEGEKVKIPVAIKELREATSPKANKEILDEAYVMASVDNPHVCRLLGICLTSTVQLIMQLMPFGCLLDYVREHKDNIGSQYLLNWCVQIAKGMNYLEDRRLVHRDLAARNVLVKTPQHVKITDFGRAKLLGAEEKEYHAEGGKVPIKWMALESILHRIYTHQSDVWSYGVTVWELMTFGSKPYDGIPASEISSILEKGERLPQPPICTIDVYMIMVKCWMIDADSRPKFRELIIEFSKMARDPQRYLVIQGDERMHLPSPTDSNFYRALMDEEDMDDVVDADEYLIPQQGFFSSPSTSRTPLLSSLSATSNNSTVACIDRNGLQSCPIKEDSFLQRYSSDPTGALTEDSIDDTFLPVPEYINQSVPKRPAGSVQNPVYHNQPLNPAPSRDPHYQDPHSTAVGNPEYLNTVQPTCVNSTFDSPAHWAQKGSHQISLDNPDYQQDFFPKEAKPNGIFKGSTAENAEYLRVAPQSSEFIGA
T5 sequence (P00533 with tags, fused parts or gaps DEL746-750/T790M/C797S, form open): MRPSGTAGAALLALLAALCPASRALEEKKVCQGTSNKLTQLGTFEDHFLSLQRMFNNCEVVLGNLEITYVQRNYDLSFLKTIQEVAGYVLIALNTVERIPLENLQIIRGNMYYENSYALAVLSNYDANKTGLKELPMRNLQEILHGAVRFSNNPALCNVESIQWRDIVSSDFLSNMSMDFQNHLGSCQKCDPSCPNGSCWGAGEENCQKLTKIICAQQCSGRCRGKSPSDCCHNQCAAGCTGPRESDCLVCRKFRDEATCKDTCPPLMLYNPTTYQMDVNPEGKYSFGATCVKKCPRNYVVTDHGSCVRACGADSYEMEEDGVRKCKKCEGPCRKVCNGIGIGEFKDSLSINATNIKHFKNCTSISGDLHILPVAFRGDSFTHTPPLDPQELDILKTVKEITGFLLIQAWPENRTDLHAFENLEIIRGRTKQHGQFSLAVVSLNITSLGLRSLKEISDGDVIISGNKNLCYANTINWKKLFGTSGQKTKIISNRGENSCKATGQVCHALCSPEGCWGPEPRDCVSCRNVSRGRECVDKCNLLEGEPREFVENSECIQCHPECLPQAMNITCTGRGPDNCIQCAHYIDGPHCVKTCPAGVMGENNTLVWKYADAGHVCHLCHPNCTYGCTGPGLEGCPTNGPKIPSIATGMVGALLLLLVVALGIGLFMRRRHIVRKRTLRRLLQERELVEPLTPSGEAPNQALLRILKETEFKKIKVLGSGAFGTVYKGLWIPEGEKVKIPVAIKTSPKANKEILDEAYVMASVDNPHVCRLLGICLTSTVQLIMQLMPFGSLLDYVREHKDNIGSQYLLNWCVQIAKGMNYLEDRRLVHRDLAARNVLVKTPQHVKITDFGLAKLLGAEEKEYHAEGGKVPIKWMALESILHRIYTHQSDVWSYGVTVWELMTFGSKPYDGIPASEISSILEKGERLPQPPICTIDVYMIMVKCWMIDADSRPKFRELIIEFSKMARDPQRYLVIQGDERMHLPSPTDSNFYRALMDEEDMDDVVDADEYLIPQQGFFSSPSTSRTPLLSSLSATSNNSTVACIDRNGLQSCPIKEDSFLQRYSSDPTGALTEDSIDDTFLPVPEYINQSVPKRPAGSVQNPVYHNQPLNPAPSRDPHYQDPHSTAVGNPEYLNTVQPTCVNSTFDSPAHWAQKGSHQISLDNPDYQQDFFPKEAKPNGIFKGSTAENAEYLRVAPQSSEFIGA
T2 sequence (P00533 with tags, fused parts or gaps DEL746-750): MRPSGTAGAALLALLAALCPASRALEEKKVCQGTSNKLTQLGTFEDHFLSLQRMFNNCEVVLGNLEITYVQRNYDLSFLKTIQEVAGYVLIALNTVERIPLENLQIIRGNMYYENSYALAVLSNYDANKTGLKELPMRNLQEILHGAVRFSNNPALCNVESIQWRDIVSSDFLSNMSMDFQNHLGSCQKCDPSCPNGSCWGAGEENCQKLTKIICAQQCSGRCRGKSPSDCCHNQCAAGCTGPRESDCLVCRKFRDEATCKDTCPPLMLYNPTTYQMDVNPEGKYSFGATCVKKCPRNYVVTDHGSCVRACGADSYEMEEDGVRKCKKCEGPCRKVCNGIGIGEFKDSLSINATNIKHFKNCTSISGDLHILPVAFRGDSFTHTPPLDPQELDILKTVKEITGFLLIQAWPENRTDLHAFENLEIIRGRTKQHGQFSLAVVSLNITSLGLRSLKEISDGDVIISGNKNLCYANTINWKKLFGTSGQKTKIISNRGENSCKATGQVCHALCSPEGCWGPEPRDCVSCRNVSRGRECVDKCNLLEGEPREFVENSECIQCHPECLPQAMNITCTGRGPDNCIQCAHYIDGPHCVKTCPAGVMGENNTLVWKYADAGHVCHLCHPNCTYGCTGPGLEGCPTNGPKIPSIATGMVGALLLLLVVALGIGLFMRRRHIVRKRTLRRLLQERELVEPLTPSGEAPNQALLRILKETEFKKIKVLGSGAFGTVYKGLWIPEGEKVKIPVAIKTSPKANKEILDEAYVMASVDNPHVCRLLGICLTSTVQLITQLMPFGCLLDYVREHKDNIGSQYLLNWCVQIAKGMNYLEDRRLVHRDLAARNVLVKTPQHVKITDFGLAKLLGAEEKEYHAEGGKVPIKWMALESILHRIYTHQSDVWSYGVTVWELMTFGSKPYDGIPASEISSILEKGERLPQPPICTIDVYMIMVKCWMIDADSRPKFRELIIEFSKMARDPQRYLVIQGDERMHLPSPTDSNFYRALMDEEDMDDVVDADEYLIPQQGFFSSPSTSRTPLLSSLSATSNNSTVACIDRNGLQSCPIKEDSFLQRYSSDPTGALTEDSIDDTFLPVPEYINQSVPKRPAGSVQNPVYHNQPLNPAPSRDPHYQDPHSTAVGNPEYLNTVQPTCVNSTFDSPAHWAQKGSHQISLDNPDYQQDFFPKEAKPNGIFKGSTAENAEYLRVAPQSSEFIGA
T3 sequence (P00533 25-1210 L858R): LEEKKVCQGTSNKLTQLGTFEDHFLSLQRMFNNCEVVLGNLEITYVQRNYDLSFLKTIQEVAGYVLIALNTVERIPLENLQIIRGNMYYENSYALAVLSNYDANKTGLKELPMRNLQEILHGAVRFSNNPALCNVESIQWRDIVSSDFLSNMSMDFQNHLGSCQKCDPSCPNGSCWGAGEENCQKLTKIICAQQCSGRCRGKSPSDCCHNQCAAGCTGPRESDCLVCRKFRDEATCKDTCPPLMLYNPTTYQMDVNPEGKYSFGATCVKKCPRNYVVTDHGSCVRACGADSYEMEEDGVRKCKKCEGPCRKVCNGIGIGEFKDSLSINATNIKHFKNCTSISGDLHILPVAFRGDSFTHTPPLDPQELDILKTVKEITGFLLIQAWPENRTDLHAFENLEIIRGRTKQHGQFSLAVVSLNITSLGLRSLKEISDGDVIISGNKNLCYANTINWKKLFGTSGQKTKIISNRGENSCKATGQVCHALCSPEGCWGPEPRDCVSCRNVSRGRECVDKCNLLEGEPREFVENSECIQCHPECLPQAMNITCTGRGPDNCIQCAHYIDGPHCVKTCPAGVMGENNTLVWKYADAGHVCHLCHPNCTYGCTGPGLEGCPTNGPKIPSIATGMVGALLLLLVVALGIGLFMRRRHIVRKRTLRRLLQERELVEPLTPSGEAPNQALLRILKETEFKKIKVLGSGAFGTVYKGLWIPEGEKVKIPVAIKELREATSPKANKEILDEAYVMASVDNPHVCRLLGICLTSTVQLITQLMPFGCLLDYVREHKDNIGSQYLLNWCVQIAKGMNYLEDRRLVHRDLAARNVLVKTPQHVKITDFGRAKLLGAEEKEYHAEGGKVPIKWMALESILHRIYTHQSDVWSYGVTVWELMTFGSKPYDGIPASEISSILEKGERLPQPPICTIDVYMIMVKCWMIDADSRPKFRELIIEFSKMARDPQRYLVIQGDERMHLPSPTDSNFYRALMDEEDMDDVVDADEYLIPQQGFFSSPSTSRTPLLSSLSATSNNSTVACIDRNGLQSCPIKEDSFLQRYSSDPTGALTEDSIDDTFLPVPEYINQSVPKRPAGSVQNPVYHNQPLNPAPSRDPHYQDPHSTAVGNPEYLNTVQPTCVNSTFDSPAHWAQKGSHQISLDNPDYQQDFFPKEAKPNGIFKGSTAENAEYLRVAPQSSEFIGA

`CCc1cc(Nc2ncc(C(F)(F)F)c(Nc3ccc4nccnc4c3N(C)S(C)(=O)=O)n2)c(OC)cc1N1CCC(N(C)C)CC1` [Compound I-206]: the IC50 in experiment [1], in experiment [2], in experiment [3], in experiment [4], in experiment [5] and in experiment [6] was not above 50 nM in each case.

For the molecule `COc1cc(N2CCN(C)CC2)c(C)cc1Nc1ncc(C(F)(F)F)c(Nc2ccc3nccnc3c2N(C)S(C)(=O)=O)n1` [Compound I-207], the IC50 was not above 50 nM in experiment [1]; 50 to 500 nM in experiment [2]; 50 to 500 nM in experiment [3]; not above 50 nM in experiment [4]; not above 50 nM in experiment [5]; not above 50 nM in experiment [6].

Regarding `CCc1cc(Nc2ncc(C(F)(F)F)c(Nc3ccc4nccnc4c3N(C)S(C)(=O)=O)n2)c(OC)cc1N1CCN(C)CC1` [Compound I-208], the IC50 was not above 50 nM in experiment [1]; 50 to 500 nM in experiment [2]; not above 50 nM in experiment [3]; not above 50 nM in experiment [4]; not above 50 nM in experiment [5]; not above 50 nM in experiment [6].

On to `COc1cc(N2CCC(N(C)C)C2)c(C)cc1Nc1ncc(C(F)(F)F)c(Nc2ccc3nccnc3c2N(C)S(C)(=O)=O)n1` (stereo not drawn) [Compound I-209], for which the IC50 was not above 50 nM in experiment [1]; 50 to 500 nM in experiment [2]; not above 50 nM in experiment [3]; not above 50 nM in experiment [4]; not above 50 nM in experiment [5]; not above 50 nM in experiment [6].

As to `CCc1cc(Nc2ncc(C(F)(F)F)c(Nc3ccc4nccnc4c3N(C)S(C)(=O)=O)n2)c(OC)cc1N1CCC(N(C)C)C1` (stereo not drawn) [Compound I-210], the IC50 in experiment [1], in experiment [2], in experiment [3], in experiment [4], in experiment [5] and in experiment [6] was not above 50 nM in each case.

On to `CCN(c1c(Nc2nc(Nc3ccc(N4CCC(N5CCN(C)CC5)CC4)cc3OC)ncc2Br)ccc2nccnc12)S(C)(=O)=O` [Compound I-211], for which the IC50 in experiment [1] is not above 50 nM; in experiment [2] it was 50 to 500 nM; in experiment [3], not above 50 nM; in experiment [4], not above 50 nM; in experiment [5], not above 50 nM; in experiment [6], not above 50 nM.

Regarding `CCc1cc(Nc2ncc(Br)c(Nc3ccc4nccnc4c3N(CC)S(C)(=O)=O)n2)c(OC)nc1N1CCC(N2CCN(C)CC2)CC1` [Compound I-212], the IC50 in experiment [1] was not above 50 nM; in experiment [2], 50 to 500 nM; in experiment [3], 50 to 500 nM; in experiment [4] it was not above 50 nM; in experiment [5], not above 50 nM; in experiment [6], not above 50 nM.

With `CCN(c1c(Nc2nc(Nc3cc(CC4CC4)c(N4CCC(N5CCN(C)CC5)CC4)cc3OC)ncc2Br)ccc2nccnc12)S(C)(=O)=O` [Compound I-213], the IC50 in experiment [1], in experiment [2], in experiment [3], in experiment [4], in experiment [5] and in experiment [6] was not above 50 nM throughout.

As to `CCS(=O)(=O)N(C)c1c(Nc2nc(Nc3ccc(N4CCC(N5CCN(C)CC5)CC4)cc3OC)ncc2Br)ccc2nccnc12` [Compound I-214], the IC50 in experiment [1] is not above 50 nM; in experiment [2], 50 to 500 nM; in experiment [3], 50 to 500 nM; in experiment [4], not above 50 nM; in experiment [5] it was not above 50 nM; in experiment [6] it was 50 to 500 nM.

Consider `COc1cc(N2CCC(N3CCN(C)CC3)CC2)ccc1Nc1ncc(Br)c(Nc2ccc3nccnc3c2N(C)S(=O)(=O)C2CC2)n1` [Compound I-215], for which the IC50 in experiment [1] is not above 50 nM; in experiment [2], 50 to 500 nM; in experiment [3], 50 to 500 nM; in experiment [4] it was not above 50 nM; in experiment [5], not above 50 nM; in experiment [6] it was not above 50 nM.

In the case of `COc1nc(N2CCC(N3CCN(C)CC3)CC2)ccc1Nc1ncc(Br)c(Nc2ccc3nccnc3c2N(C)S(=O)(=O)C2CC2)n1` [Compound I-216], the IC50 was 500 to 2500 nM in experiment [1]; 500 to 2500 nM in experiment [2]; 500 to 2500 nM in experiment [3]; 500 to 2500 nM in experiment [4]; 50 to 500 nM in experiment [5]; 50 to 500 nM in experiment [6].

With `CCc1cc(Nc2ncc(Br)c(Nc3ccc4nccnc4c3N(C)S(=O)(=O)C3CC3)n2)c(OC)nc1N1CCC(N2CCN(C)CC2)CC1` [Compound I-218], the IC50 in experiment [1] was not above 50 nM; in experiment [2], 50 to 500 nM; in experiment [3], 50 to 500 nM; in experiment [4], not above 50 nM; in experiment [5], not above 50 nM; in experiment [6], not above 50 nM.

For `C=Cc1cc(Nc2ncc(Br)c(Nc3ccc4nccnc4c3N(C)S(=O)(=O)C3CC3)n2)c(OC(F)(F)F)cc1N1CCC(N2CCN(C)CC2)CC1` [Compound I-219], the IC50 in experiment [1] is 50 to 500 nM; in experiment [2], 50 to 500 nM; in experiment [3], 50 to 500 nM; in experiment [4], not above 50 nM; in experiment [5], not above 50 nM; in experiment [6] it was 50 to 500 nM.

`COc1cc(N2CCC(N3CCN(C)CC3)CC2)c(CC2CC2)cc1Nc1ncc(Br)c(Nc2ccc3nccnc3c2N(C)S(=O)(=O)C2CC2)n1` [Compound I-220]: the IC50 in experiment [1] was 50 to 500 nM; in experiment [2] it was 50 to 500 nM; in experiment [3] it was 50 to 500 nM; in experiment [4], 50 to 500 nM; in experiment [5], not above 50 nM; in experiment [6], not above 50 nM.

For the molecule `COc1cc(N2CCC(N(C)C)CC2)c(C)cc1Nc1ncc(Br)c(Nc2ccc3nccnc3c2N(C)S(=O)(=O)C2CC2)n1` [Compound I-221], the IC50 is not above 50 nM in experiment [1]; 50 to 500 nM in experiment [2]; 50 to 500 nM in experiment [3]; not above 50 nM in experiment [4]; not above 50 nM in experiment [5]; not above 50 nM in experiment [6].

`COc1cc(N2CCC(N(C)C)C2)c(C)cc1Nc1ncc(Br)c(Nc2ccc3nccnc3c2N(C)S(=O)(=O)C2CC2)n1` (stereo not drawn) [Compound I-222]: the IC50 is not above 50 nM in experiment [1]; 50 to 500 nM in experiment [2]; 50 to 500 nM in experiment [3]; not above 50 nM in experiment [4]; not above 50 nM in experiment [5]; not above 50 nM in experiment [6].

As to `COc1cc(N2CCC(N3CCN(C)CC3)CC2)ccc1Nc1ncc(Br)c(Nc2ccc3nccnc3c2N(C2CC2)S(C)(=O)=O)n1` [Compound I-223], the IC50 in experiment [1] is not above 50 nM; in experiment [2] it was 50 to 500 nM; in experiment [3] it was 50 to 500 nM; in experiment [4], not above 50 nM; in experiment [5] it was not above 50 nM; in experiment [6], not above 50 nM.

Regarding `CCN(c1c(Nc2nc(Nc3ccc(N4CCC(N5CCN(C)CC5)CC4)cc3OC)ncc2Cl)ccc2nccnc12)S(C)(=O)=O` [Compound I-224], the IC50 was not above 50 nM in experiment [1]; 50 to 500 nM in experiment [2]; 50 to 500 nM in experiment [3]; 50 to 500 nM in experiment [4]; not above 50 nM in experiment [5]; not above 50 nM in experiment [6].

For `CCN(c1c(Nc2nc(Nc3ccc(N4CCC(N5CCN(C)CC5)CC4)nc3OC)ncc2Cl)ccc2nccnc12)S(C)(=O)=O` [Compound I-225], the IC50 in experiment [1] was 50 to 500 nM; in experiment [2], 50 to 500 nM; in experiment [3] it was 50 to 500 nM; in experiment [4] it was 50 to 500 nM; in experiment [5] it was not above 50 nM; in experiment [6] it was 50 to 500 nM.

On to `CCN(c1c(Nc2nc(Nc3cc(C)c(N4CCC(N5CCN(C)CC5)CC4)nc3OC)ncc2Cl)ccc2nccnc12)S(C)(=O)=O` [Compound I-226], for which the IC50 is 50 to 500 nM in experiment [1]; 500 to 2500 nM in experiment [2]; 500 to 2500 nM in experiment [3]; 50 to 500 nM in experiment [4]; 500 to 2500 nM in experiment [5]; 500 to 2500 nM in experiment [6].

`CCc1cc(Nc2ncc(Cl)c(Nc3ccc4nccnc4c3N(CC)S(C)(=O)=O)n2)c(OC)nc1N1CCC(N2CCN(C)CC2)CC1` [Compound I-227]: the IC50 is not above 50 nM in experiment [1]; 50 to 500 nM in experiment [2]; not above 50 nM in experiment [3]; not above 50 nM in experiment [4]; not above 50 nM in experiment [5]; not above 50 nM in experiment [6].

`C=Cc1cc(Nc2ncc(Cl)c(Nc3ccc4nccnc4c3N(CC)S(C)(=O)=O)n2)c(OC(F)(F)F)cc1N1CCC(N2CCN(C)CC2)CC1` [Compound I-228]: the IC50 in experiment [1] was not above 50 nM; in experiment [2] it was 50 to 500 nM; in experiment [3], 50 to 500 nM; in experiment [4], not above 50 nM; in experiment [5], not above 50 nM; in experiment [6] it was not above 50 nM.

(Values after patent US20230310428A1, “EGFR INHIBITOR AND PREPARATION METHOD AND USE THEREOF” (HONGYUN BIOTECH CO., LTD., priority 2020, published 2023).)
